Assay: Inhibition of baker's yeast alpha-glucosidase preincubated for 15 to 20 mins followed by p-nitrophenyl-alpha-D-glucopyranoside substrate addition measured after 45 to 60 mins by spectrophotometric method
Set-up: species or system Saccharomyces cerevisiae
Details: not given

With `O=C1CC(c2ccc(Br)cc2)Nc2ccccc21` (configuration not stated) the IC50 was “Nd(Insoluble)”.

Same assay, conditions: read-out: IC50

First: O=C1CC(C2CCOC2)Nc2ccccc21 (configuration not stated)
Second: O=C1CC(C2CC2)Nc2ccccc21 (configuration not stated)
The IC50 of the first is 3.1-fold higher: 867 µM for the first, 284 µM for the second. The second is the more potent here.

`O=C1CC(c2ccncc2)Nc2ccccc21` (configuration not stated) and `O=C1CC(c2ccccc2)Nc2ccccc21` (configuration not stated) [Aza-flavanone] are within 1.5-fold of each other in IC50: 773 µM for the first, 686 µM for the second.

First: O=C1CC(c2ccsc2)Nc2ccccc21 (configuration not stated)
Second: O=C1CC(c2cccs2)Nc2ccccc21 (configuration not stated)
The IC50 of the first is 5.3-fold lower: 72.4 µM for the first, 382 µM for the second. The first is the more potent here.

Compared with `O=C1CC(c2ccc(C(F)(F)F)cc2)Nc2ccccc21` (configuration not stated), `COc1ccc(C2CC(=O)c3ccccc3N2)cc1` (configuration not stated) is 5.7-fold higher in IC50: 53.5 µM for the first, 303 µM for the second.

First: O=C1CC(c2ccc(F)cc2F)Nc2ccccc21 (configuration not stated)
Second: Cc1ccc(C2CC(=O)c3ccccc3N2)cc1C (configuration not stated)
The IC50 of the first is 2.9-fold lower: 211 µM for the first, 606 µM for the second.

`OCCN1C[C@H](O)[C@@H](O)[C@H](O)[C@H]1CO` [MIGLITOL] and `OCC(CO)N[C@H]1C[C@](O)(CO)[C@@H](O)[C@H](O)[C@H]1O` [VOGLIBOSE] are within 1.5-fold of each other in IC50: 462 µM for the first, 325 µM for the second.

`O=C1CC(C2CCCO2)Nc2ccccc21` (configuration not stated) and `O=C1CC(C2CCCCC2)Nc2ccccc21` (configuration not stated) are within 1.5-fold of each other in IC50: 667 µM for the first, 494 µM for the second.

Compared with `CCCCC1CC(=O)c2cc(OC)ccc2N1` (configuration not stated), `CCCCC1CC(=O)c2ccc(F)cc2N1` (configuration not stated) is 5.1-fold lower in IC50: 683 µM for the first, 134 µM for the second. The second is the more potent here.

`O=C1CC(c2ccco2)Nc2ccccc21` (configuration not stated) and `O=C1CC(c2ccoc2)Nc2ccccc21` (configuration not stated) are within 1.5-fold of each other in IC50: 487 µM for the first, 352 µM for the second.

`CCCC1CC(=O)c2ccccc2N1` (configuration not stated) and `CCC1CC(=O)c2ccccc2N1` (configuration not stated) are within 1.5-fold of each other in IC50: 190 µM for the first, 272 µM for the second.

`C[C@H]1O[C@H](O[C@H]2[C@H](O)[C@@H](O)[C@@H](O[C@H]3[C@H](O)[C@@H](O)C(O)O[C@@H]3CO)O[C@@H]2CO)[C@H](O)[C@@H](O)[C@@H]1N[C@H]1C=C(CO)[C@@H](O)[C@H](O)[C@H]1O` (some centres not stated) [ACARBOSE] showed an IC50 of 360 µM.

Source: ChEMBL document CHEMBL4261528, “Synthesis, molecular modeling and biological evaluation of aza-flavanones as α-glucosidase inhibitors” (Medchemcomm, 2017)
